Assay results published in ChEMBL document CHEMBL5653631, “A Potent and Selective ULK1 Inhibitor Suppresses Autophagy and Sensitizes Cancer Cells to Nutrient Stress” (iScience, 2018).
One block for each molecule: values may come before it.

Assays:
[1] = target: T1, Tribbles homolog 2 (Homo sapiens) (UniProt Q92519); assay: Inhibition of human recombinant Trb2 at 500 nM related to control ULK1
T1 sequence (whole entry): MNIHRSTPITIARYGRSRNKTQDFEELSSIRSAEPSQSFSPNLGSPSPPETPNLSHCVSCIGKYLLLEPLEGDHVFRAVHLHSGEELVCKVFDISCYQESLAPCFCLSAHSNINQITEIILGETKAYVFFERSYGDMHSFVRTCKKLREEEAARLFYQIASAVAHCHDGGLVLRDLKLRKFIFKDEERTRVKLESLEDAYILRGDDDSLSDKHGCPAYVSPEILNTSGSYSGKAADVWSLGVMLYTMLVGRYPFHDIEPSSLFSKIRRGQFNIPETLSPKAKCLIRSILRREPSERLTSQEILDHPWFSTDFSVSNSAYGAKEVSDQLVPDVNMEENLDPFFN

[2] = target: Serine/threonine-protein kinase WNK2 (Homo sapiens) (UniProt Q9Y3S1); assay: Inhibition of human recombinant Wnk2 at 500 nM in presence of ATP by radiometric assay relative to control
[3] = target: Eukaryotic translation initiation factor 2-alpha kinase 1 (Homo sapiens) (UniProt Q9BQI3); assay: Inhibition of human recombinant HRI at 500 nM related to control ULK1
[4] = target: Death-associated protein kinase 3 (Homo sapiens) (UniProt O43293); assay: Inhibition of human recombinant DAPK3 at 15 nM in presence of ATP by radiometric assay relative to control
Chain of Death-associated protein kinase 3 (Homo sapiens) (O43293 whole entry, looked up): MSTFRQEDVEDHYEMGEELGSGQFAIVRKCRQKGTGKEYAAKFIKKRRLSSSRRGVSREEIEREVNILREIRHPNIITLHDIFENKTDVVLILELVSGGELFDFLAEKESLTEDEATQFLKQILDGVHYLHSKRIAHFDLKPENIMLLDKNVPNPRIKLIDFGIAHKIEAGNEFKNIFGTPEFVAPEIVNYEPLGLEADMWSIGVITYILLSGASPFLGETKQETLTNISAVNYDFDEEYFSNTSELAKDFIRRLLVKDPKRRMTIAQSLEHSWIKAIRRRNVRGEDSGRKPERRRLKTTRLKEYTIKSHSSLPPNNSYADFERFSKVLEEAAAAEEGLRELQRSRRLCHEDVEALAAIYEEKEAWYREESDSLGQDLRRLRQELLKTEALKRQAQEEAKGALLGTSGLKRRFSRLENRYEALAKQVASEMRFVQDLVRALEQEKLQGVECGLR

[5] = target: T2, Testis-specific serine/threonine-protein kinase 4 (Homo sapiens) (UniProt Q6SA08); assay: Inhibition of human recombinant TSSK4 at 15 nM in presence of ATP by radiometric assay relative to control
T2 sequence (whole entry): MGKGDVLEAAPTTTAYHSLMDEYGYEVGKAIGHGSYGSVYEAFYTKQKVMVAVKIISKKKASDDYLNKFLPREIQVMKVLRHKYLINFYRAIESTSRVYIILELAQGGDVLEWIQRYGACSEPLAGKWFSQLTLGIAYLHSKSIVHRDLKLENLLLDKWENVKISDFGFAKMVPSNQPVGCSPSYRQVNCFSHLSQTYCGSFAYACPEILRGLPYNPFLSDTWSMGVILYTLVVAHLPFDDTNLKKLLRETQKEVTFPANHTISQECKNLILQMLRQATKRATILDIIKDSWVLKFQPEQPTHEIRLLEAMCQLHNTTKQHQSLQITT

[6] = target: Serine/threonine-protein kinase ULK1 (Homo sapiens, UniProt O75385); assay: Inhibition of ULK1 phosphorylation at Ser15 residue in HEK293 cells incubated for 1 hr by chemiluminescence based immunoblotting analysis; assay type: cell-based, HEK293T
Chain of Serine/threonine-protein kinase ULK1 (O75385 whole entry): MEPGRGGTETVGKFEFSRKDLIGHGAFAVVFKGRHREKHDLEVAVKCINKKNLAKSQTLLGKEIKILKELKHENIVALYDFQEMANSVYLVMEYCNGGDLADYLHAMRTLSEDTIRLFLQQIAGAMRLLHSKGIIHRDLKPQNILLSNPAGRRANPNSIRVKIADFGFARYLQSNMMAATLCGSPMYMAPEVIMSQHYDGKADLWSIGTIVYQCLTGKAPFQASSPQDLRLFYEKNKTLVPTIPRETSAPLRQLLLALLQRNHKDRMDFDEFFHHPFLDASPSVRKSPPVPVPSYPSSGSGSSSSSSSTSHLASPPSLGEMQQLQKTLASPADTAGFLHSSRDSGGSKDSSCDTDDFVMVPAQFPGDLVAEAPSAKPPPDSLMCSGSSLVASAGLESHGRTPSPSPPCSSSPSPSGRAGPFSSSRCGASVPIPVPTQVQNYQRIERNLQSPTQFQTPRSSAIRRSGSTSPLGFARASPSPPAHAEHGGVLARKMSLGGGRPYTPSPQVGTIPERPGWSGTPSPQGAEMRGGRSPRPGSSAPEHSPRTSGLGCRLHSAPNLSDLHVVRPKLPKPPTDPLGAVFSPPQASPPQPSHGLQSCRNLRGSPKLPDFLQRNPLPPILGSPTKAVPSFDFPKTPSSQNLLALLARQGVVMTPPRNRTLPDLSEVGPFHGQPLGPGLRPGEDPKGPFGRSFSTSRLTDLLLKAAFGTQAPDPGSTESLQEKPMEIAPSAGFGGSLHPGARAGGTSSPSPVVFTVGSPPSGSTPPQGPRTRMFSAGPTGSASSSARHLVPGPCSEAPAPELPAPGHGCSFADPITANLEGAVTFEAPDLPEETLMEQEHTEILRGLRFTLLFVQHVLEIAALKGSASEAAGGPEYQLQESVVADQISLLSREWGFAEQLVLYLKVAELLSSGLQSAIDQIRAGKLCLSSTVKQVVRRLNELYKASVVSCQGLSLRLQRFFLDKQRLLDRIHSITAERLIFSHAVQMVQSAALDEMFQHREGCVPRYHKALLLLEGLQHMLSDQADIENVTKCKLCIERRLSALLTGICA

[7] = target: T3, Mitogen-activated protein kinase kinase kinase 2 (Homo sapiens) (UniProt Q9Y2U5); assay: Inhibition of human recombinant MAP3K2 at 15 nM related to control ULK1
T3 sequence (whole entry): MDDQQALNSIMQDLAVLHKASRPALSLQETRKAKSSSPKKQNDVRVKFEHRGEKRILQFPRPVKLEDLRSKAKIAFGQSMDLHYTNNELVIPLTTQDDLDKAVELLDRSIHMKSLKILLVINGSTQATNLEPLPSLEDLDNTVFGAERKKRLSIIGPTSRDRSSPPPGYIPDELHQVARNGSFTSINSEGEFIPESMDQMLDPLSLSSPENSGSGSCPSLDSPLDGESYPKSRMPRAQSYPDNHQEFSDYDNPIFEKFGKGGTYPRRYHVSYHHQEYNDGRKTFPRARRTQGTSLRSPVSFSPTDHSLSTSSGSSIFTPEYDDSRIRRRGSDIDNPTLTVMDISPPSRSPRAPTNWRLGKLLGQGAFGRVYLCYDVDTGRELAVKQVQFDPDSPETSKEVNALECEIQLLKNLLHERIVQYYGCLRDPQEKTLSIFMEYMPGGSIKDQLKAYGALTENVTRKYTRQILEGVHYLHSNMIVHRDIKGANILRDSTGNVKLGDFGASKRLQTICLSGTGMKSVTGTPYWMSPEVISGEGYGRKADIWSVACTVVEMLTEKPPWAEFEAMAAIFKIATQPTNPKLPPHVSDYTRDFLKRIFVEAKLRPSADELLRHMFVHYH

[8] = target: Casein kinase I isoform gamma-2 (Homo sapiens) (UniProt P78368); assay: Inhibition of human recombinant CK1g2 at 15 nM in presence of ATP by radiometric assay relative to control
[9] = target: Calcium/calmodulin-dependent protein kinase type 1D (Homo sapiens) (UniProt Q8IU85); assay: Inhibition of human recombinant CaMK1d at 40 nM related to control ULK1
[10] = target: Protein-tyrosine kinase 2-beta (Homo sapiens) (UniProt Q14289); assay: Inhibition of human recombinant PYK2 at 40 nM related to control ULK1
Chain of Protein-tyrosine kinase 2-beta (Homo sapiens) (Q14289 whole entry, looked up): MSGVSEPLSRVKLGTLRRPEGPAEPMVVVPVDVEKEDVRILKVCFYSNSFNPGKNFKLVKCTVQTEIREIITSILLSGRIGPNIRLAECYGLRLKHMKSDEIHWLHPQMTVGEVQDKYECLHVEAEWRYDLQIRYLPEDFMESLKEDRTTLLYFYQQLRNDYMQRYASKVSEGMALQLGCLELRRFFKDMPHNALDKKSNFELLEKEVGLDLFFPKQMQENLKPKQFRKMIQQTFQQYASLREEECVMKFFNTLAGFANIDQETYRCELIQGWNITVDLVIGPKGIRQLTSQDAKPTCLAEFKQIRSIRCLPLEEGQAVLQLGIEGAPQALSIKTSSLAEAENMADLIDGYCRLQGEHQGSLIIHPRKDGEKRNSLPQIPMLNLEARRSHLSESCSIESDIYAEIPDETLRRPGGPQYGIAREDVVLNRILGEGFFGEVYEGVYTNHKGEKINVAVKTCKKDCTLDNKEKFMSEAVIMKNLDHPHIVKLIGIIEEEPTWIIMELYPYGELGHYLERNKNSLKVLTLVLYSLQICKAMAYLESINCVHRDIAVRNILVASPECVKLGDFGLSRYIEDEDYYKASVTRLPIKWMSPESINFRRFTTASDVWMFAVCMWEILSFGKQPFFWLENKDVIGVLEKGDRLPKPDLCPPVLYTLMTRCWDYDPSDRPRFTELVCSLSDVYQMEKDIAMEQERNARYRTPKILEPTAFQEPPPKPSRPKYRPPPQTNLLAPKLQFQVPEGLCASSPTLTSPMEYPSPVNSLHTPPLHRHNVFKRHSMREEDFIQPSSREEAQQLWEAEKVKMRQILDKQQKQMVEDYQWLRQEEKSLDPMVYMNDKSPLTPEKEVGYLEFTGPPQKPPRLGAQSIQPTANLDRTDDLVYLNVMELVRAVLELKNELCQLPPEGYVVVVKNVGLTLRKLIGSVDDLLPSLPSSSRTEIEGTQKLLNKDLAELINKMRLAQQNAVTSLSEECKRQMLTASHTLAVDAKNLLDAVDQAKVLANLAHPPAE

[11] = target: Leucine-rich repeat serine/threonine-protein kinase 2 (Homo sapiens) (UniProt Q5S007); assay: Inhibition of human recombinant LRRK2 at 40 nM related to control ULK1
Chain of Leucine-rich repeat serine/threonine-protein kinase 2 (Homo sapiens) (Q5S007 whole entry): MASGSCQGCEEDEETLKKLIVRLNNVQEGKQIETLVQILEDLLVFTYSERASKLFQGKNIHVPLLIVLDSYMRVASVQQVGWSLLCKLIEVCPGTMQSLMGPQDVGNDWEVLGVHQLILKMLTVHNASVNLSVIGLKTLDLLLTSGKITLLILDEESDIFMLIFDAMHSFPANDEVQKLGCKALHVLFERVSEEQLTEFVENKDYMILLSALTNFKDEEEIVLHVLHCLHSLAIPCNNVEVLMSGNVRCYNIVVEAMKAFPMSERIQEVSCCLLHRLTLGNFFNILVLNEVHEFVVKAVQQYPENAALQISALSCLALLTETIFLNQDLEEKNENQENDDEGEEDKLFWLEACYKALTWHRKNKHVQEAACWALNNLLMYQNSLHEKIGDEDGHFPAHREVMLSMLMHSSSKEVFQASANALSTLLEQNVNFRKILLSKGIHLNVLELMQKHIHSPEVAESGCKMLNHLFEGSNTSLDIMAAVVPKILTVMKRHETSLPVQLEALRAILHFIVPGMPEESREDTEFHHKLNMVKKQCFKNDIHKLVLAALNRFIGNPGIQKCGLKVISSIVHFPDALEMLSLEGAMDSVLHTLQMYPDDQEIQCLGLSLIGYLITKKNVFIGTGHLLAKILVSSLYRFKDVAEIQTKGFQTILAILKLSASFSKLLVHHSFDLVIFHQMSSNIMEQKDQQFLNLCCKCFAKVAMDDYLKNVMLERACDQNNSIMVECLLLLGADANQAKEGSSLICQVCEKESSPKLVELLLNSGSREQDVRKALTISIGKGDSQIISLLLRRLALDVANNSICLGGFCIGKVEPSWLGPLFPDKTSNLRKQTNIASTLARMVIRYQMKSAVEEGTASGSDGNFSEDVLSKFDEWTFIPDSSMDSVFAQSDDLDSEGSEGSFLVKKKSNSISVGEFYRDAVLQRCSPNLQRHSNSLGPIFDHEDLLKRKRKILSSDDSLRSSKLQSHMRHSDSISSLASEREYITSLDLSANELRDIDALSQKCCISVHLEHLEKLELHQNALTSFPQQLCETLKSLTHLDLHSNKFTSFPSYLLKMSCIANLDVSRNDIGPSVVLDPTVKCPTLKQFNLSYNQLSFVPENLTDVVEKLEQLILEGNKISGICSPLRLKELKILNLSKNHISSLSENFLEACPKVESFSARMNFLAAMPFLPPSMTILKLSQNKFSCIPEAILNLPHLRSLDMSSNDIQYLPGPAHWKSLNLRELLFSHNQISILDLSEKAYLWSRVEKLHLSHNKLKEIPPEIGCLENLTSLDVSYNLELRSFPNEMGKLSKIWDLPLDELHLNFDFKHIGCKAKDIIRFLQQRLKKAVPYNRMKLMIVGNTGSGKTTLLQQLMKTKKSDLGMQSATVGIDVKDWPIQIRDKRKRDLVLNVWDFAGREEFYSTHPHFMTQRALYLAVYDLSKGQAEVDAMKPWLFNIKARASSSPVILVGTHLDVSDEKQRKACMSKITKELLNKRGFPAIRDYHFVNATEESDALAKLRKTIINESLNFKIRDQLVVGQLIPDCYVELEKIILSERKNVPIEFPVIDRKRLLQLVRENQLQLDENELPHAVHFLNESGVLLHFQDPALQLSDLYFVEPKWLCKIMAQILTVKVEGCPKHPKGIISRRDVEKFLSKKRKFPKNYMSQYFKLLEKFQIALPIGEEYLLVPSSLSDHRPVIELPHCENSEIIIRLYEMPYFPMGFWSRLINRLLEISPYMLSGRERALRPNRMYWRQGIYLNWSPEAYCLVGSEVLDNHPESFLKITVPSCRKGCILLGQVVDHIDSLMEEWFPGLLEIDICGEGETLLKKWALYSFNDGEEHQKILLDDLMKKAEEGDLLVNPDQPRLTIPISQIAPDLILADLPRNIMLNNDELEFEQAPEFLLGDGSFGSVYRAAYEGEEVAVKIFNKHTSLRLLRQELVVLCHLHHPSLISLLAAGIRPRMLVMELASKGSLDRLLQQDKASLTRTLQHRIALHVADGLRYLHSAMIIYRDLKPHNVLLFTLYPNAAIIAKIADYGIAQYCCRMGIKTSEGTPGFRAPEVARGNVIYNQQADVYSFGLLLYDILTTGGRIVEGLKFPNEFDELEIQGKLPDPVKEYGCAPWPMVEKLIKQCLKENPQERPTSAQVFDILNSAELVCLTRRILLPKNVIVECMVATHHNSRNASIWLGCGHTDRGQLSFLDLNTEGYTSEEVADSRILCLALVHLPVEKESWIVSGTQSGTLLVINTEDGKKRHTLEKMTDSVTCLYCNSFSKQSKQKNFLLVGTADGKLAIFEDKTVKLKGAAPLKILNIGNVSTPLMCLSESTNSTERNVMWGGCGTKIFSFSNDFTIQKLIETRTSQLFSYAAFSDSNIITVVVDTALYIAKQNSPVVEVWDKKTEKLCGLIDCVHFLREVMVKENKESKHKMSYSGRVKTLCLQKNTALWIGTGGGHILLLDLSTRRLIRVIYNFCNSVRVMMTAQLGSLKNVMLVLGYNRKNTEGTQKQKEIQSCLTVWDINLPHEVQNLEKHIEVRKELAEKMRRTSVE

[12] = target: Serine/threonine-protein kinase 32B (Homo sapiens) (UniProt Q9NY57); assay: Inhibition of human recombinant YANK2 at 40 nM related to control ULK1
[13] = target: T3, Mitogen-activated protein kinase kinase kinase 2 (Homo sapiens); assay: Inhibition of human recombinant MAP3K2 at 40 nM related to control ULK1
[14] = target: T4, Dual specificity tyrosine-phosphorylation-regulated kinase 3 (Homo sapiens) (UniProt O43781); assay: Inhibition of human recombinant DYRK3 at 40 nM related to control ULK1
T4 sequence (whole entry): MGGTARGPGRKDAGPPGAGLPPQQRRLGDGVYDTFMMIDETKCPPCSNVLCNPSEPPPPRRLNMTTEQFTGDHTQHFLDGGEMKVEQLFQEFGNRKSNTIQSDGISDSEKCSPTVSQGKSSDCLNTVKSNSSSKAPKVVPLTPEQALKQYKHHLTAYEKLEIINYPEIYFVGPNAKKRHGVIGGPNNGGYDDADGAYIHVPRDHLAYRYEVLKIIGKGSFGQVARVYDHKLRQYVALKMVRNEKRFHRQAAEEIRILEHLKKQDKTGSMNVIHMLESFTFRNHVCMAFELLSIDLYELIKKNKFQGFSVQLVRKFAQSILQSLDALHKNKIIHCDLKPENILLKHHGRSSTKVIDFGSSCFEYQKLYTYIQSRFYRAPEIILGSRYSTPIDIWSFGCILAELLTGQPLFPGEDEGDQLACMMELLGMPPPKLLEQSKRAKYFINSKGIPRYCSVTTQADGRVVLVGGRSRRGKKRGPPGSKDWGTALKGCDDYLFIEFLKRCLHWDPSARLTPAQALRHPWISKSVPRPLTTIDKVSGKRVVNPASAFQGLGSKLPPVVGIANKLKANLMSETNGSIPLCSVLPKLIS

fold change (FC) [1]: 0
inhibition [2]: 1%
fold change (FC) [3]: 0
SMILES: CNC(=O)c1ccccc1Oc1nc(Nc2cc(OC)c(OC)c(OC)c2)ncc1Br

inhibition [5]: 0%
EC50 [6]: 83 nM
fold change (FC) [7]: 0.03
inhibition [8]: 0%
SMILES: CC(C)[C@H](NC(=O)c1cc(-c2cnn3cc(-c4ccc(OCCN5CCCCC5)cc4)cnc23)cs1)C(F)(F)F
inhibition [4]: 0%

fold change (FC) [9]: 0
fold change (FC) [10]: 0.04
fold change (FC) [11]: 0.04
fold change (FC) [12]: 0.04
fold change (FC) [13]: 0
fold change (FC) [14]: 0.41
SMILES: O=C(N[C@@H](C1CC1)C(F)(F)F)c1cc(-c2cnn3cc(-c4ccc(F)cc4)cnc23)cs1
